{"source": "patent US11992530B2", "about": "(priority 2018, dated 2024)", "key": {"[1]": {"experiment": "Dynamic vapor sorption (DVS) isotherm", "details": "for DVS weight loss upon desorption: hysteresis observed"}, "[2]": {"experiment": "Clinical pharmacokinetics (plasma levels, distribution, excretion)", "source_text": "The compound is available as anhydrous and crystalline forms; the pentahydrate crystalline form is the most common hydrate form. […] Proposed mechanisms of action involve its […], which allow it to act as a free radical scavenger and/or by covalent binding and inactivating the platinum compound.\n(§1) Thiosulfate is an endogenous compound ubiquitously present in all cells and organs."}, "[3]": {"tested_on": "cisplatin-induced ototoxicity", "source_text": "Reference is made to International Patent Application Publication No. WO 2019/108592, which is a continuation of U.S. patent application Ser. No. 15/826,243, filed on Nov. 29, 2017, both of which are incorporated by reference herein in their entirety."}, "[4]": {"details": "animals", "source_text": "as §1"}, "human plasma proteins": {"tested_on": "human plasma proteins", "source_text": "as §1"}, "[5]": {"details": "for Cisplatin Concentration: 24° C.", "description": "In one aspect, a mixed mode C-18 chromatography column is used in the assay, which has both hydrophobic interaction and ion exchange capabilities. In another aspect, the HPLC run time for the assay is about 2 min, about 5 min, about 7.5 min, about 10 min or about 15 min. In one aspect, the HPLC run time is about 5 min or about 10 min.\nIn another aspect, the concentration is analyzed using HPLC with a mixed mode C-18 chromatography column at a column temperature of 35° C., flow rate of 400 μL/min, and UV detection at 220 nm. In one aspect, the HPLC method comprises a step gradient of 100% Buffer A (0.5 mM ammonium formate in 9:1 water:acetonitrile, pH 4) for 3 min; then 90% Buffer A and 10% Buffer B (200 mM ammonium formate in 7:3 water:acetonitrile, pH 4) for 3.5 min; then 100% Buffer A for 4.5 min.\nThe method uses a Waters Acquity H-Class HPLC system with an Imtakt Scherzo SW-C18 mixed mode column. The HPLC method conditions are outlined in Table 7. […] This range covers greater than two orders of magnitude at dose-relevant concentrations.\nEach sample was transferred to an HPLC vial and placed in an autosampler chamber held at 24° C. Samples were injected onto the HPLC system approximately every 30 minutes to obtain 4 time-points for each sample. A gradient was run and the retention time and peak area were obtained."}, "[6]": {"details": "cited from earlier work"}, "[7]": {"tested_on": "small cell lung cancer cell cultures", "details": "cited from earlier work"}, "[8]": {"details": "preliminary clinical studies, dose equivalent to 5.1 g/m^2 sodium thiosulfate for injection"}, "[9]": {"details": "thiosulfate:cisplatin 5:1 (n = 2)"}, "[10]": {"details": "thiosulfate:cisplatin 6:1 (n = 2)"}, "[11]": {"details": "thiosulfate:cisplatin 10:1 (n = 2)"}}, "note": "Where “and” joins values, the source holds several entries; their conditions need not be identical. Identical values can stand only once. Like-named read-outs stand apart in the source and are kept apart here."}
{"compound": "O.O.O.O.O.O=S([O-])([O-])=S.[Na+].[Na+]", "note": "[sodium thiosulfate pentahydrate]", "values": [{"measurement": "DVS weight gain upon sorption", "setting": "[1]", "value": 81, "unit": "%"}, {"measurement": "DVS weight loss upon drying", "setting": "[1]", "value": 27, "unit": "%"}, {"measurement": "DVS weight loss upon desorption", "setting": "[1]", "value": 51, "unit": "%"}]}
{"compound": "O=S([O-])([O-])=S.[Na+].[Na+]", "note": "[anhydrous sodium thiosulfate, Sodium thiosulfate anhydrous]", "values": [{"measurement": "DVS weight change upon equilibration to 0% relative humidity", "setting": "[1]", "value": "minimal weight change"}, {"measurement": "DVS weight loss upon desorption", "setting": "[1]", "value": 51, "unit": "%"}]}
{"compound": "O=S(O)(O)=S", "note": "[thiosulfate]", "values": [{"measurement": "Endogenous serum thiosulfate levels", "setting": "[2]; adult volunteers", "value": "5.5 ± 1.8", "unit": "µM"}]}
{"compound": "O=S([O-])([O-])=S.[Na+].[Na+]", "note": "[STS, sodium thiosulfate]", "values": [{"measurement": "Prevention of ototoxicity", "setting": "[3]; doses equivalent to 6.4 to 12.8 g/m^2 sodium thiosulfate for injection", "value": "prevented ototoxicity"}, {"measurement": "Ototoxicity in pediatric patients treated with platinum based chemotherapeutics", "setting": "[3]; pediatric patients", "value": "reduces ototoxicity"}, {"measurement": "Hearing protection", "setting": "[3]; [8]", "value": "did not show hearing protection"}, {"measurement": "Survival", "setting": "[3]; treatment 6 hours after completion of each CIS infusion", "value": "did not affect survival"}, {"measurement": "Efficacy of cisplatin based chemotherapeutics when STS was administered", "setting": "[3]; two phase III clinical trials, pediatric patients", "value": "not affected"}, {"measurement": "Distribution to the cochlea", "setting": "[4]", "value": "distribute to the cochlea"}, {"measurement": "Binding to human plasma proteins", "setting": "human plasma proteins", "value": "does not bind"}, {"measurement": "Plasma accumulation", "setting": "[2]; administered on 2 consecutive days", "value": "no plasma accumulation"}, {"measurement": "Volume of distribution", "setting": "[2]; adults", "value": 0.23, "unit": "L/kg"}, {"measurement": "Maximum STS plasma levels", "setting": "[2]; children and adults, 15-minute infusion, dose equivalent to 12.8 g/m^2 sodium thiosulfate for injection", "value": "approximately 13.3 mM"}, {"measurement": "Distribution across the blood brain barrier or placenta", "setting": "[2]; human, in vivo", "value": "absent or limited"}, {"measurement": "Absorption after oral administration", "setting": "[2]; oral", "value": "poorly absorbed"}, {"measurement": "Maximum plasma levels", "setting": "[2]; [8]", "value": 3.9, "unit": "mM"}, {"measurement": "Serum sodium levels", "setting": "doses equivalent to 12.8 g/m^2 sodium thiosulfate for injection", "value": "small, transient increase"}, {"measurement": "Renal or other toxicities", "setting": "pediatric patients treated with a platinum based chemotherapeutic", "value": "not exacerbate renal or other toxicities"}, {"measurement": "Half-life of cisplatin (time to reach 333/2 μM)", "setting": "[5]; [9]", "value": 3.3, "unit": "h"}, {"measurement": "Slope, linear regression of cisplatin conc. vs. time", "setting": "[5]; [9]", "value": "−0.80", "unit": "Cisplatin Area/min"}, {"measurement": "Cisplatin Concentration", "setting": "[5]; thiosulfate:cisplatin 5:1, 4 min", "value": 323.7, "unit": "µM"}, {"measurement": "Cisplatin Concentration", "setting": "[5]; thiosulfate:cisplatin 5:1, 37 min", "value": "294.2 µM and 294.0 µM"}, {"measurement": "Cisplatin Concentration", "setting": "[5]; thiosulfate:cisplatin 5:1, 70 min", "value": "266.8 µM and 268.0 µM"}, {"measurement": "Cisplatin Concentration", "setting": "[5]; thiosulfate:cisplatin 5:1, 103 min", "value": "243.7 µM and 245.3 µM"}, {"measurement": "Half-life of cisplatin (time to reach 333/2 μM)", "setting": "[5]; [10]", "value": 3.07, "unit": "h"}, {"measurement": "Slope, linear regression of cisplatin conc. vs. time", "setting": "[5]; [10]", "value": "−0.87", "unit": "Cisplatin Area/min"}, {"measurement": "Cisplatin Concentration", "setting": "[5]; thiosulfate:cisplatin 6:1, 5 min", "value": "325.4 µM and 324.5 µM"}, {"measurement": "Cisplatin Concentration", "setting": "[5]; thiosulfate:cisplatin 6:1, 38 min", "value": "286.4 µM and 293.2 µM"}, {"measurement": "Cisplatin Concentration", "setting": "[5]; thiosulfate:cisplatin 6:1, 71 min", "value": "259.8 µM and 266.2 µM"}, {"measurement": "Cisplatin Concentration", "setting": "[5]; thiosulfate:cisplatin 6:1, 104 min", "value": "235.6 µM and 240.5 µM"}, {"measurement": "Half-life of cisplatin (time to reach 333/2 μM)", "setting": "[5]; [11]", "value": 2.27, "unit": "h"}, {"measurement": "Slope, linear regression of cisplatin conc. vs. time", "setting": "[5]; [11]", "value": "−1.13", "unit": "Cisplatin Area/min"}, {"measurement": "Cisplatin Concentration", "setting": "[5]; thiosulfate:cisplatin 10:1, 4 min", "value": 319.5, "unit": "µM"}, {"measurement": "Cisplatin Concentration", "setting": "[5]; thiosulfate:cisplatin 10:1, 5 min", "value": 320.3, "unit": "µM"}, {"measurement": "Cisplatin Concentration", "setting": "[5]; thiosulfate:cisplatin 10:1, 37 min", "value": 269.4, "unit": "µM"}, {"measurement": "Cisplatin Concentration", "setting": "[5]; thiosulfate:cisplatin 10:1, 38 min", "value": 278.5, "unit": "µM"}, {"measurement": "Cisplatin Concentration", "setting": "[5]; thiosulfate:cisplatin 10:1, 70 min", "value": 235.2, "unit": "µM"}, {"measurement": "Cisplatin Concentration", "setting": "[5]; thiosulfate:cisplatin 10:1, 71 min", "value": 239.6, "unit": "µM"}, {"measurement": "Cisplatin Concentration", "setting": "[5]; thiosulfate:cisplatin 10:1, 103 min", "value": 205.6, "unit": "µM"}, {"measurement": "Cisplatin Concentration", "setting": "[5]; thiosulfate:cisplatin 10:1, 104 min", "value": 209.3, "unit": "µM"}, {"measurement": "Excreted in the urine unmodified", "setting": "[6]; following IV administration", "value": "Up to 95%"}, {"measurement": "Biological half-life", "setting": "[6]; human, in vivo", "value": 0.65, "unit": "hours"}, {"measurement": "Biological half-life, range dependent on dose", "setting": "[6]; human, in vivo", "value": "16.5-182 minutes"}, {"measurement": "Cytotoxicity of etoposide after immediate or delayed addition of STS", "setting": "[7]; incubation for 72 hours", "value": "no reduction of cytotoxicity"}, {"measurement": "Anti-tumor activity of doxorubicin, carmustine (BCNU), paclitaxel, or methotrexate with STS", "setting": "[7]; similar studies", "value": "no reduction of anti-tumor activity"}]}
